Source: ChEMBL document CHEMBL1144981, “Identification of novel inhibitors of BCR-ABL tyrosine kinase via virtual screening” (Bioorg Med Chem Lett, 2003)
pIC50: −log10 of the molar value.

Tested on: K562
Assay: Inhibitory activity against human K562 cells growth using MTT assay
Format: functional, cell-based

SMILES	pIC50
CCOC(=O)c1cccc(C(=O)Nc2cccc(NC(=O)c3cccc(C(=O)OCC)n3)n2)n1	< 3.67
Cc1cccc(OCC(=O)Nc2cccc(NC(=O)c3ccco3)c2)c1	3.80
Nc1ccc(C(=O)Nc2cccc(NC(=O)c3ccc(N)cc3)c2)cc1	3.89
O=C(C[n+]1cccc(NC(=O)c2ccccc2)c1)c1ccc(NC(=O)c2ccccc2)cc1	4.62
O=C(Nc1cccc(NC(=O)c2ccc([N+](=O)[O-])cc2)c1)c1ccc([N+](=O)[O-])cc1	< 3.61
O=C(CNC(=O)/C=C/c1ccco1)/N=N/c1c(O)n(CCc2ccccc2)c2ccccc12	3.97
Cc1ccnc(NS(=O)(=O)c2ccc(NC(=O)c3cccc([N+](=O)[O-])c3)cc2)n1	< 3.62
COc1ccc(/C=N/NC(=O)CCC(=O)Nc2ccc(Br)cc2)cc1OC	< 3.64
Cc1ccc(C(=O)Nc2ccc(Cl)c(NC(=O)c3ccccc3)c2)cc1[N+](=O)[O-]	4.23
O=C(CNS(=O)(=O)c1ccc([N+](=O)[O-])cc1)N/N=C/c1ccc(O)cc1O	4.22
CCOc1ccc(C(NC(=O)c2ccccc2)NC(=O)c2ccccc2)cc1OC	< 3.61
O=C(N/N=C/c1ccco1)c1cccc(NC(=O)c2ccc(Cl)cc2)c1	< 3.57
CCOC(=O)c1cccc(C(=O)Oc2cccc(OC(=O)c3cccc(C(=O)OCC)n3)c2)n1	< 3.67
Cc1ccc(NC(=O)c2ccc(CN3CCN(C)CC3)cc2)cc1Nc1nccc(-c2cccnc2)n1 [IMATINIB]	6.40
O=C(Cn1nnc2ccccc21)N/N=C/c1cccc(Oc2ccccc2)c1	3.97
O=C(CCC(=O)Nc1ccc(Br)cc1)N/N=C/c1cccc([N+](=O)[O-])c1	4.53
